Measurements taken from BindingDB's records for doi:10.1016/j.bmcl.2004.12.045 (Nimbus Therapeutics, 2022).

Legend:
[1] = target: Potassium voltage-gated channel subfamily H member 2 (Homo sapiens, UniProt Q12809); experiment: Inhibition of hERG measured by patchclamp assay
Cytochrome P450 3A4 = Cytochrome P450 3A4 (Homo sapiens, UniProt P08684); experiment: Inhibition of CYP3A4 (unknown origin)
Cytochrome P450 2D6 = Cytochrome P450 2D6 (Homo sapiens, UniProt P10635); experiment: Inhibition of CYP2D6 (unknown origin)
Cytochrome P450 2C9 = Cytochrome P450 2C9 (Homo sapiens, UniProt P11712); experiment: Inhibition of CYP2C9 (unknown origin)
Cytochrome P450 2C8 = target: T1, Cytochrome P450 2C8 (Homo sapiens, UniProt P10632); experiment: Inhibition of CYP2C8 (unknown origin)
T1 sequence (P10632 whole entry): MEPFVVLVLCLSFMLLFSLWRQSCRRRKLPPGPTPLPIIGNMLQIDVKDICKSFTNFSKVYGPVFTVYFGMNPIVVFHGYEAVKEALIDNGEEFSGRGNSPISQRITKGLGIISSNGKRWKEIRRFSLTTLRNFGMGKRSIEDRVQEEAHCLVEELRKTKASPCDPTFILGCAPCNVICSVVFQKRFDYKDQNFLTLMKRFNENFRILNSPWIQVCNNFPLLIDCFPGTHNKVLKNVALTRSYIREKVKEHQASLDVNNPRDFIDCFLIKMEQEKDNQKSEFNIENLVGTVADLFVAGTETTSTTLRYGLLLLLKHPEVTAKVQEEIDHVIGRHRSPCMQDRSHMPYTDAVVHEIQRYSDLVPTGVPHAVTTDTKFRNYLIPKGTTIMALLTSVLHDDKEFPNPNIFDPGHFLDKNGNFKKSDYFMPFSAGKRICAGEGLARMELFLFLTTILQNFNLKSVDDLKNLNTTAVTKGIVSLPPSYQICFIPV

Cytochrome P450 1A2 = target: T2, Cytochrome P450 1A2 (Homo sapiens, UniProt P05177); experiment: Inhibition of CYP1A2 (unknown origin)
T2 sequence (P05177 whole entry): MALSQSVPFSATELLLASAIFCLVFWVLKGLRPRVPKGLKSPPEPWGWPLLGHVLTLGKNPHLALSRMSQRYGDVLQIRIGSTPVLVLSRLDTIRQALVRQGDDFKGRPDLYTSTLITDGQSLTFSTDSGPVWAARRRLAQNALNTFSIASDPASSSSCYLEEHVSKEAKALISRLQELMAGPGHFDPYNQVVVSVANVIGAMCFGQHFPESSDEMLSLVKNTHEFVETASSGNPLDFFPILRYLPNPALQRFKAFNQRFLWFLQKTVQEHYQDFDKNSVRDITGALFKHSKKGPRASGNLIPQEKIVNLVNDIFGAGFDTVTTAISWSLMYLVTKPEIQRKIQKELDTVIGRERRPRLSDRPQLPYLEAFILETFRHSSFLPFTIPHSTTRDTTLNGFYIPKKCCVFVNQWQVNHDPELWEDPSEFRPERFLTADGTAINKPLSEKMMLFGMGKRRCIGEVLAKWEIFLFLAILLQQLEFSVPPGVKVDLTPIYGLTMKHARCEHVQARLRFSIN

Cytochrome P450 2A6 = target: T3, Cytochrome P450 2A6 (Homo sapiens, UniProt P11509); experiment: Inhibition of CYP2A6 (unknown origin)
T3 sequence (P11509 whole entry): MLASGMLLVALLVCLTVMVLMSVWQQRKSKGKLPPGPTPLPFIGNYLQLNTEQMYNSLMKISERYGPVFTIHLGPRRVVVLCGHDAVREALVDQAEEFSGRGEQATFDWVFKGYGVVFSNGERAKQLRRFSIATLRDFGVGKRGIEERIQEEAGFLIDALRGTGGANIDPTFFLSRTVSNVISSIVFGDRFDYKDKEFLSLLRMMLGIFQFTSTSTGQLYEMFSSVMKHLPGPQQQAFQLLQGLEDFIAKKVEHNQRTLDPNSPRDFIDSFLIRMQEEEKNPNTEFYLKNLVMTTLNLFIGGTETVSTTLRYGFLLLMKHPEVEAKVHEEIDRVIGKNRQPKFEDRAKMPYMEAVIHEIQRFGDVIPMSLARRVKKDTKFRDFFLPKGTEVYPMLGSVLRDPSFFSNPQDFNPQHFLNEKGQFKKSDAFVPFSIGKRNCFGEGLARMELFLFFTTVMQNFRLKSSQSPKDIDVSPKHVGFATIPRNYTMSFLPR

Cytochrome P450 2B6 = target: T4, Cytochrome P450 2B6 (Homo sapiens, UniProt P20813); experiment: Inhibition of CYP2B6 (unknown origin)
T4 sequence (P20813 whole entry): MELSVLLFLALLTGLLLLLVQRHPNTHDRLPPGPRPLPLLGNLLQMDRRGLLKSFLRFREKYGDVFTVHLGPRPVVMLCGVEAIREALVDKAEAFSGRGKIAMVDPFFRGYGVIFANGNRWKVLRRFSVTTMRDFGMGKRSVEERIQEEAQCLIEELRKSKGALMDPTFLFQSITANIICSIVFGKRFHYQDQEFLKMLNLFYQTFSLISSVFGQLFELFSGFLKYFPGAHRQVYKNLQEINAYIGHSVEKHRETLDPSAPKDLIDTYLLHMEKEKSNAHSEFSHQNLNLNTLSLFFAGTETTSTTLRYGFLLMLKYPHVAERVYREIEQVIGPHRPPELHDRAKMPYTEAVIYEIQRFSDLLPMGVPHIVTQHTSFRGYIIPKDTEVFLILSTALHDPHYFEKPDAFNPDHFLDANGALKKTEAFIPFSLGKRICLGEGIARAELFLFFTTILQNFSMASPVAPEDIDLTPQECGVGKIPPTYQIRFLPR

Cytochrome P450 2C19 = Cytochrome P450 2C19 (Homo sapiens, UniProt P33261); experiment: Inhibition of CYP2C19 (unknown origin)
Cytochrome P450 2E1 = Cytochrome P450 2E1 (Homo sapiens, UniProt P05181); experiment: Inhibition of CYP2E1 (unknown origin)
Cytochrome P450 3A5 = Cytochrome P450 3A5 (Homo sapiens, UniProt P20815); experiment: Inhibition of CYP3A5 (unknown origin)

Measured: IC50

Sequence of Cytochrome P450 3A4 (P08684 whole entry): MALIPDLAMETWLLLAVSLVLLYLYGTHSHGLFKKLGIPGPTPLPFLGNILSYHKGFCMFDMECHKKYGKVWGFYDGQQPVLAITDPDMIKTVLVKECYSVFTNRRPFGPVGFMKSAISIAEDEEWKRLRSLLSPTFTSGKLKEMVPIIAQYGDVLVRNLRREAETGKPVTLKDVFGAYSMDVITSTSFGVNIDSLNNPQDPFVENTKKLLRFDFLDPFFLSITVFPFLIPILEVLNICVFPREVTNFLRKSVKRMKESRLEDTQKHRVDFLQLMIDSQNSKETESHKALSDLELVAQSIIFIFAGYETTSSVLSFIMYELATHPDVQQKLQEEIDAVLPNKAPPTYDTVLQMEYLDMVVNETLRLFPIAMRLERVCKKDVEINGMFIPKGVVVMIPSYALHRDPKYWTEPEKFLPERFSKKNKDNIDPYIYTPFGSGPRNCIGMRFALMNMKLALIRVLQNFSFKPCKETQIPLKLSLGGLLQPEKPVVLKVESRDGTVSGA
Sequence of Potassium voltage-gated channel subfamily H member 2 (Q12809 whole entry): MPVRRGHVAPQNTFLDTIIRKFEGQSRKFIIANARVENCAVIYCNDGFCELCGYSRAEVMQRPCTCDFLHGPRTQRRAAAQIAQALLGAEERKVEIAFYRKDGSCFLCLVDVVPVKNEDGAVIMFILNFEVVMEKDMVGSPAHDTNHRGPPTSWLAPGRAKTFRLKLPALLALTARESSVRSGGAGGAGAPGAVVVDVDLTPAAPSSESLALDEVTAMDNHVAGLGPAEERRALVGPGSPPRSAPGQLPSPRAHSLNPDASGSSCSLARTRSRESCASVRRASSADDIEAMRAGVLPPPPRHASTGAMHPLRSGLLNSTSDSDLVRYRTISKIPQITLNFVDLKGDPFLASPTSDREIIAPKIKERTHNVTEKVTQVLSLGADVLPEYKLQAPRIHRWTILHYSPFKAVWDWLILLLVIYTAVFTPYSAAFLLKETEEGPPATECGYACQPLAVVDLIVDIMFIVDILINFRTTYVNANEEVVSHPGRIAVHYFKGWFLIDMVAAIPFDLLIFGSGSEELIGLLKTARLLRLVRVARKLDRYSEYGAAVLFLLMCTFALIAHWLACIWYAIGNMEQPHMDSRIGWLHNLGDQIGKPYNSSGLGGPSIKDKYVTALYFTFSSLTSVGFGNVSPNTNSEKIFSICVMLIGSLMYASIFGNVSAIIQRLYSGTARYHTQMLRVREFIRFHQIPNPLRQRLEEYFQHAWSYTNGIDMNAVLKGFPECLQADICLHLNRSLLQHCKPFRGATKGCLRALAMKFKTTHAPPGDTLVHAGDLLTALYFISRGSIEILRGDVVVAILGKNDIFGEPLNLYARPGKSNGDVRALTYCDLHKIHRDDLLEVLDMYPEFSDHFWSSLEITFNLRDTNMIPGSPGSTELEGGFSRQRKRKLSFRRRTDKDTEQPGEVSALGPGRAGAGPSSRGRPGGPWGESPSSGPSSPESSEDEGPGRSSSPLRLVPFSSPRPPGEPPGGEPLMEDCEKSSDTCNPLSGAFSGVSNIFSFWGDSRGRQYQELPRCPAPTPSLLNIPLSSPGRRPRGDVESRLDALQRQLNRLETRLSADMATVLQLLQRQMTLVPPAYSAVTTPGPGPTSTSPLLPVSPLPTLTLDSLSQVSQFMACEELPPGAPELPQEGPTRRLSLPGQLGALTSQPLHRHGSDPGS
Sequence of Cytochrome P450 3A5 (P20815 whole entry): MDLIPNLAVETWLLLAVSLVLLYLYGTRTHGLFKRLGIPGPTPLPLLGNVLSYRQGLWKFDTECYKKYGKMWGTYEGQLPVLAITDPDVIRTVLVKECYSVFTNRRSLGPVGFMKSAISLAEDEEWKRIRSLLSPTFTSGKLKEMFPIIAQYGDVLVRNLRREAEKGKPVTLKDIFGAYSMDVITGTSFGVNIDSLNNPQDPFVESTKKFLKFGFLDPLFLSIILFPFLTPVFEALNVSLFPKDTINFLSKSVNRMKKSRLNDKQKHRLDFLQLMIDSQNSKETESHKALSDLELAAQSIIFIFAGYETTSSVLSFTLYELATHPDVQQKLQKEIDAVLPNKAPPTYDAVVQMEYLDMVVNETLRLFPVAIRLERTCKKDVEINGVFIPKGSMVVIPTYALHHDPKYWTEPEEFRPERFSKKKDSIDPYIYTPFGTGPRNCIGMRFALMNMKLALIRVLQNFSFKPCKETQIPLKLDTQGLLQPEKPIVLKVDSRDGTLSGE
Sequence of Cytochrome P450 2C19 (P33261 whole entry): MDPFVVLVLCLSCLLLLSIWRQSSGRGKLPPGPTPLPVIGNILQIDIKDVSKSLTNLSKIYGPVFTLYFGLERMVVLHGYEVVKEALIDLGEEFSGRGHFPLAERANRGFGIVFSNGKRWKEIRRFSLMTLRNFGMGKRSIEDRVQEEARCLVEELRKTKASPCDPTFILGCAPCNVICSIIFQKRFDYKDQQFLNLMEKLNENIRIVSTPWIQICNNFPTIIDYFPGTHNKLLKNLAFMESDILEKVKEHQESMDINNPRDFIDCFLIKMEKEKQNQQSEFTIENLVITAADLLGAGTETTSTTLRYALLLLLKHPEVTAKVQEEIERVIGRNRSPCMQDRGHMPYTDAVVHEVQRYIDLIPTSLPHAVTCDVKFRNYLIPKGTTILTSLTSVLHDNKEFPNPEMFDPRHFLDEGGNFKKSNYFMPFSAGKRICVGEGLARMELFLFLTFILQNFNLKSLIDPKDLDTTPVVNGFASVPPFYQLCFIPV
Sequence of Cytochrome P450 2C9 (P11712 whole entry): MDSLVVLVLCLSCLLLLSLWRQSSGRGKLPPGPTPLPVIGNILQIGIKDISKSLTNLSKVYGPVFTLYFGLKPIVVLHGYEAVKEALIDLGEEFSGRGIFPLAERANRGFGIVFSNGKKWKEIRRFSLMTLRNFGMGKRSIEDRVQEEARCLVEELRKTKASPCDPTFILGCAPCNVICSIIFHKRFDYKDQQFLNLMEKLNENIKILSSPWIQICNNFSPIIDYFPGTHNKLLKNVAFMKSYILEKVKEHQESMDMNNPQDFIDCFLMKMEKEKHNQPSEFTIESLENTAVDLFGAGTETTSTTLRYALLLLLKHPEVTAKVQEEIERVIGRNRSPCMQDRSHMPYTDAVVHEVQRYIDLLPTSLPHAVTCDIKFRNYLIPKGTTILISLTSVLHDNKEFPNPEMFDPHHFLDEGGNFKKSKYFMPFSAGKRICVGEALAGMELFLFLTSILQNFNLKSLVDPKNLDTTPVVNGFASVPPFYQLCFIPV
Sequence of Cytochrome P450 2D6 (P10635 whole entry): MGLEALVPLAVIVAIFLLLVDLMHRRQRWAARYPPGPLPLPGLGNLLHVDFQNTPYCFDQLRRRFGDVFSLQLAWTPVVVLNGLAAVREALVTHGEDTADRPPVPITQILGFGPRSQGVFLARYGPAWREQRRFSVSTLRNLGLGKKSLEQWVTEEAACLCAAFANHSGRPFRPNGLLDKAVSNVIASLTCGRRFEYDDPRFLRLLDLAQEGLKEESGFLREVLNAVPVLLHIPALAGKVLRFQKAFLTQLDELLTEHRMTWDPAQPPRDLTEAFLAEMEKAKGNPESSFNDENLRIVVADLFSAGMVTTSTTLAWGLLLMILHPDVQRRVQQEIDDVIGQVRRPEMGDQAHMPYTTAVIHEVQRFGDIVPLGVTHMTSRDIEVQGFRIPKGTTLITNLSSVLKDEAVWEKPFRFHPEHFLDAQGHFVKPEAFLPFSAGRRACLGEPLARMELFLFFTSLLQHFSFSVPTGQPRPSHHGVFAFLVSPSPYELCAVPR
Sequence of Cytochrome P450 2E1 (P05181 whole entry): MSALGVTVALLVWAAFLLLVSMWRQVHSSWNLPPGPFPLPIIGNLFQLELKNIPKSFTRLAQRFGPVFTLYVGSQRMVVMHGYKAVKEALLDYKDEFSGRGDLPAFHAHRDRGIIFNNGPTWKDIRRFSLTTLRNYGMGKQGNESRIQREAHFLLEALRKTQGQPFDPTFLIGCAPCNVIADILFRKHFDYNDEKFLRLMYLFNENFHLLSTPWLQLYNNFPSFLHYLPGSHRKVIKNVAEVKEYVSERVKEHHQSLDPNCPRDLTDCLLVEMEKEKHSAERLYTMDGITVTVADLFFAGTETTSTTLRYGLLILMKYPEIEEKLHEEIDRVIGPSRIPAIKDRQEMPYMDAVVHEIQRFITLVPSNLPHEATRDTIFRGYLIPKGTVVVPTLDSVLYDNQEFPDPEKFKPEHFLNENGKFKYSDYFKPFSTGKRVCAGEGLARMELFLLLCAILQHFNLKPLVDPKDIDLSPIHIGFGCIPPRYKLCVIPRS

O=C1NCc2nc(-c3c(F)cccc3F)cc(Nc3ccc(C(=O)N4CCCC4)cc3)c21 [US10336752, Compound 2]
> 30 µM: all assays above
